From ChEMBL document CHEMBL4483862, “Open-source discovery of chemical leads for next-generation chemoprotective antimalarials” (2018)

System: Plasmodium berghei
Experiment: Luciferase/luciferin-expressing antifolate-resistant parasites were used to infect a culture of HepG2 cells that were pre-incubated with compounds. Infected hepatocytes emit light due to the luciferase reaction. Assay results are presented as the percent inhibition of light emission compared to control. […]
Assay type: functional
Conditions: sporozoite; for IC90: read-out: LUCIFERASE INFECTION ASSAY - IC90
[1] = read-out: LUCIFERASE INFECTION ASSAY - IC50

| Compound | IC90 | IC50 [1] | other results |
| --- | --- | --- | --- |
| COc1ccc2c(-c3sc(Nc4ccc(C(C)C)cc4)c(-c4nc5ccccc5s4)c3N)cc(=O)oc2c1 | 2.94 µM |  | IC50 (HEPG2TOX_HILL_SLOPE 1.27, HEPG2TOX_R_SQUARED 0.95, PBLUC_HILL_SLOPE 4.32, PBLUC_R_SQUARED 0.419, read-out: LUCIFERASE INFECTION ASSAY - IC50): 1.76 µM |
| CC/C=C1/CC(=O)N(c2ccccc2)C1=O | 14.2 µM |  | IC50 (PBLUC_HILL_SLOPE 3.2, PBLUC_R_SQUARED 0.213, read-out: LUCIFERASE INFECTION ASSAY - IC50): 7.15 µM |
| CCCCn1nnnc1COC(=O)c1ccccc1Sc1ccccc1C#N | > 10 µM | > 10 µM |  |
| O=C(Cn1nnc2ccccc2c1=O)c1ccc(C2CCCCC2)cc1 | > 10 µM |  | IC50 (PBLUC_HILL_SLOPE 0.775, PBLUC_R_SQUARED 0.761, read-out: LUCIFERASE INFECTION ASSAY - IC50): 1.11 µM |
| Fc1cccc(-c2cnc3cnc(-c4ccc(CNc5ccccc5)cc4)cn23)c1 | > 8.37 µM |  | IC50 (PBLUC_HILL_SLOPE 9.4, PBLUC_R_SQUARED 0.212, read-out: LUCIFERASE INFECTION ASSAY - IC50): > 8.37 µM |
| CCn1c(SCC(=O)NC(=O)NCc2cccs2)nnc1C1CC1 | > 10 µM | > 10 µM |  |
| COc1cc(CNc2nccc3nc(-c4ccccc4Cl)[nH]c23)cc(OC)c1OC | > 10 µM | 8.57 µM |  |
| CCOC(=O)c1c(-c2ccc(F)cc2)csc1NC(=O)CSc1nc2c(c(-c3ccccc3)c1C#N)C(=O)CC(C)(C)C2 | > 10 µM |  | IC50 (FFLUC_HILL_SLOPE 18.8, FFLUC_R_SQUARED 0.892, read-out: LUCIFERASE INFECTION ASSAY - IC50): > 10 µM |
| Cc1ccc(C(NCC(=O)Nc2cc(S(C)(=O)=O)ccc2Cl)c2ccccc2)cc1C (stereo not given) | 4.49 µM |  | IC50 (PBLUC_HILL_SLOPE 11.2, PBLUC_R_SQUARED 0.465, read-out: LUCIFERASE INFECTION ASSAY - IC50): 3.69 µM |
| O=C(Nc1ccc(OCc2ccccc2)cc1)c1csc(C(O)c2cccc(Cl)c2)n1 (stereo not given) | 3.73 µM |  | IC50 (HEPG2TOX_HILL_SLOPE 2.48, HEPG2TOX_R_SQUARED 0.94, PBLUC_HILL_SLOPE 11.3, PBLUC_R_SQUARED 0.644, read-out: LUCIFERASE INFECTION ASSAY - IC50): 3.07 µM |
| CC(=O)N(C)c1cccc(-c2cc3c(Nc4cccc(C(C)C)c4)nccc3n2C)c1 | 3.76 µM |  | IC50 (PBLUC_HILL_SLOPE 18.8, PBLUC_R_SQUARED 0.545, read-out: LUCIFERASE INFECTION ASSAY - IC50): 3.34 µM |
| Cc1ccc(Cl)cc1NC(=O)C[n+]1ccc(Cc2ccc([N+](=O)[O-])cc2)cc1 | > 10 µM |  | IC50 (HEPG2TOX_HILL_SLOPE 5.4, HEPG2TOX_R_SQUARED 0.89, PBLUC_HILL_SLOPE 4.32, PBLUC_R_SQUARED 0.492, read-out: LUCIFERASE INFECTION ASSAY - IC50): 6.22 µM |
| S=c1n(CN2CCN(c3ccccc3Cl)CC2)nc(-c2cccs2)n1Cc1ccccc1 | 0.362 µM |  | IC50 (PBLUC_HILL_SLOPE 3, PBLUC_R_SQUARED 0.854, read-out: LUCIFERASE INFECTION ASSAY - IC50): 0.174 µM |
| Cn1cc(-c2cnc3cnc(-c4cccc(Cl)c4)cn23)cn1 | > 10.7 µM | > 10.7 µM |  |
| Cc1ccc(Cn2c3nc(C#N)c(C#N)nc3c3c(=O)nc(C)[nH]c32)cc1 | > 10 µM | > 10 µM |  |
| Cc1occc1C(=O)N1CCN(C(=O)c2ccc3ccccc3c2)CC1 | > 2 µM | > 2 µM |  |
| C[C@@H]1OC(O[C@H]2C[C@@H](O)[C@]3(CO)[C@@H]4C(CC[C@]3(O)C2)[C@@]2(O)CC[C@H](C3=CC(=O)OC3)[C@@]2(C)C[C@H]4O)[C@H](O)[C@H](O)[C@H]1O (stereo not given in full) | 0.179 µM |  | IC50 (HEPG2TOX_HILL_SLOPE 1.56, HEPG2TOX_R_SQUARED 0.89, PBLUC_HILL_SLOPE 1.86, PBLUC_R_SQUARED 0.797, read-out: LUCIFERASE INFECTION ASSAY - IC50): 0.0548 µM |
| O=C(NCc1ccc(Cl)cc1Cl)/C(=C/c1cccs1)n1nnnc1-c1ccccc1 | > 10 µM |  | IC50 (PBLUC_HILL_SLOPE 1.46, PBLUC_R_SQUARED 0.613, read-out: LUCIFERASE INFECTION ASSAY - IC50): 4.83 µM |
| Cc1nn(-c2ccccc2)c(Cl)c1/C=N/N1CCN(c2ccc(Cl)cc2)CC1 | > 10 µM | > 10 µM |  |
| CCCCc1ccc2nc(NC(=O)c3cccnc3-n3cncn3)sc2c1 | > 10 µM |  | IC50 (HEPG2TOX_HILL_SLOPE 2.58, HEPG2TOX_R_SQUARED 0.943, PBLUC_HILL_SLOPE 1.45, PBLUC_R_SQUARED 0.435, read-out: LUCIFERASE INFECTION ASSAY - IC50): 4 µM |
| CCn1c(NC(=O)c2oc3ccccc3c2COC)nc2ccccc21 | 4.5 µM |  | IC50 (PBLUC_HILL_SLOPE 11.7, PBLUC_R_SQUARED 0.368, read-out: LUCIFERASE INFECTION ASSAY - IC50): 3.72 µM |
| CCOC(=O)c1c(C)nn(-c2ccc(NC(=O)Nc3ccc(Cl)cc3)cc2)c1C | > 7.99 µM | > 7.99 µM |  |
| O=C(Cc1csc(-c2ccccc2)n1)Nc1nc2c(s1)CCCC2 | > 10 µM | > 10 µM |  |

| Compound | IC90 | IC50 [1] | other results |
| --- | --- | --- | --- |
| O=c1nc(CN2CCN(c3ccc(C(F)(F)F)cn3)CC2)[nH]c2ccccc12 | > 10 µM | > 10 µM |  |
| c1nc(NCc2ccc(CN3CCOCC3)cc2)c2sccc2n1 | > 10 µM |  | IC50 (HEPG2TOX_HILL_SLOPE 1.44, HEPG2TOX_R_SQUARED 0.736, PBLUC_HILL_SLOPE 1.22, PBLUC_R_SQUARED 0.605, read-out: LUCIFERASE INFECTION ASSAY - IC50): 2.88 µM |
| COc1cc(C(O)(c2nc3ccccc3s2)C(F)(F)F)c(OC)cc1N (stereo not given) | > 10 µM |  | IC50 (HEPG2TOX_HILL_SLOPE 2.34, HEPG2TOX_R_SQUARED 0.875, PBLUC_HILL_SLOPE 2.52, PBLUC_R_SQUARED 0.408, read-out: LUCIFERASE INFECTION ASSAY - IC50): 6.31 µM |
| Fc1ccc(NC(=S)NN=C2c3ccccc3-c3ccccc32)c(F)c1 | > 10 µM | > 10 µM |  |
| Cc1cccc(C)c1NC(=O)N1[C@@H]2CC[C@@H](C2)[C@H]1c1nc2c(OCCC3CCCCC3)cccc2[nH]1 | > 10 µM |  | IC50 (FFLUC_HILL_SLOPE 3.83, FFLUC_R_SQUARED 0.822, PBLUC_HILL_SLOPE 12.1, PBLUC_R_SQUARED 0.296, read-out: LUCIFERASE INFECTION ASSAY - IC50): 9.48 µM |
| Cc1ccc(Oc2c(C)nc(-c3ccccc3)nc2O)cc1 | 1.76 µM |  | IC50 (PBLUC_HILL_SLOPE 1.81, PBLUC_R_SQUARED 0.898, read-out: LUCIFERASE INFECTION ASSAY - IC50): 0.524 µM |
| N=C(N)NN=C1CCCCCCCCCCC1 | > 12 µM |  | IC50 (HEPG2TOX_HILL_SLOPE 5.24, 2.64, HEPG2TOX_R_SQUARED 0.916, 0.913, PBLUC_HILL_SLOPE 15.5, 3.20, PBLUC_R_SQUARED 0.175, 0.492, read-out: LUCIFERASE INFECTION ASSAY - IC50): 11.7 µM |
| COC(=O)c1ccc(-n2c(C)cc(-c3csc(NC(=O)/C=C/c4ccccc4[N+](=O)[O-])n3)c2C)cc1 | > 10 µM |  | IC50 (FFLUC_HILL_SLOPE 15.6, FFLUC_R_SQUARED 0.621, read-out: LUCIFERASE INFECTION ASSAY - IC50): > 10 µM |
| Cc1[nH]c(-c2ccccn2)nc(=O)c1CC(=O)OCc1nc2ccccc2s1 | > 10 µM |  | IC50 (PBLUC_HILL_SLOPE 1.8, PBLUC_R_SQUARED 0.582, read-out: LUCIFERASE INFECTION ASSAY - IC50): 7.29 µM |
| C=C(C)c1cccc(C(C)(C)NC(=O)NNc2ccnc3cc(Cl)ccc23)c1 | 9.06 µM |  | IC50 (PBLUC_HILL_SLOPE 2.57, PBLUC_R_SQUARED 0.548, read-out: LUCIFERASE INFECTION ASSAY - IC50): 3.86 µM |
| O=c1[nH]nc(SCc2ccc([N+](=O)[O-])cc2)n1CC1CCCO1 (stereo not given) | > 10 µM | > 10 µM |  |
| CC(C)(C(=O)Nc1ccon1)n1cc(-c2ccc(OCCN3CCCC3)cc2)cn1 | > 10 µM | > 10 µM |  |
| O=C(CSc1ccccc1[N+](=O)[O-])NNC(=S)NC1CC2C=CC1C2 (stereo not given) | > 8.72 µM | > 8.72 µM |  |
| COc1cccc(-c2ccc3ncc(-c4cccc(C(=O)NCCN(C)C)c4)n3n2)c1 | 4.07 µM | 1.69 µM |  |
| CC(=O)N1CCN(S(=O)(=O)c2cccc(C(=O)OCC(=O)c3ccc4c(c3)-c3ccccc3C4)c2)CC1 | > 10 µM | > 10 µM |  |
| Cc1ccc(Nc2nc(C[N+]3(Cc4csc(Nc5ccc(C)cc5)n4)CCN(Cc4ccc(C#N)cc4)CC3)cs2)cc1 | > 10 µM |  | IC50 (HEPG2TOX_HILL_SLOPE 1.4, HEPG2TOX_R_SQUARED 0.751, PBLUC_HILL_SLOPE 1.26, PBLUC_R_SQUARED 0.51, read-out: LUCIFERASE INFECTION ASSAY - IC50): 1.97 µM |
| COC(=O)c1ccc(OC(=O)c2cc3c(s2)CCC3)cc1 | > 10 µM |  | IC50 (FFLUC_HILL_SLOPE 8.2, FFLUC_R_SQUARED 0.68, read-out: LUCIFERASE INFECTION ASSAY - IC50): > 10 µM |
| Cc1ccccc1-c1cnc2cnc(-c3ccc(N4CCN(C)CC4)nc3)cn12 | > 8.58 µM |  | IC50 (PBLUC_HILL_SLOPE 2.3, PBLUC_R_SQUARED 0.345, read-out: LUCIFERASE INFECTION ASSAY - IC50): > 8.58 µM |
| Cc1ccccc1-c1cnc2cnc(-c3ccc(CNc4ccccc4)cc3)cn12 | > 8.45 µM |  | IC50 (PBLUC_HILL_SLOPE 14.2, PBLUC_R_SQUARED 0.506, read-out: LUCIFERASE INFECTION ASSAY - IC50): 8.05 µM |
| CCCn1c(C)cc(/C=C(\C#N)C(=O)OCC(=O)Nc2sc(C)c(-c3ccc(C)cc3)c2C(=O)OCC)c1C | > 10 µM |  | IC50 (PBLUC_HILL_SLOPE 0.191, PBLUC_R_SQUARED 0.0121, read-out: LUCIFERASE INFECTION ASSAY - IC50): > 10 µM |
| Cn1c(N)c(C(=O)COC(=O)c2ccccc2-c2nc3ccccc3s2)c(=O)n(C)c1=O | > 10 µM |  | IC50 (PBLUC_HILL_SLOPE 14.7, PBLUC_R_SQUARED 0.767, read-out: LUCIFERASE INFECTION ASSAY - IC50): 9.26 µM |
| Cn1c(Nc2ccccc2)nc2cnc(-c3ccc(N4CCOCC4)cc3)cc21 | > 10 µM | 9.31 µM |  |
